According to US11214594B2, “Antimicrobial peptide having synergistic antibacterial effect with antibiotics on multidrug resistant bacteria, and use thereof” (priority 2016, dated 2022):
Values joined by “and” are separate entries in the source; they are usually repeats but may differ in a detail not shown here. Equal entries are not always repeated. Where two headings read alike, the source gives them in different places. Where a SMILES comes first, the peptide text is derived from it.

Key:
MDRPA 2002 = format: cell-based, Pseudomonas aeruginosa
Outline: (§1)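 Broth microdilution in MH medium: bacterial strains diluted to 2×10^6 CFU were mixed with equal volumes of peptide serially diluted twofold in MH medium.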

MDRPA 2003 = format: cell-based, Pseudomonas aeruginosa
Outline: as §1

A. baumannii [1] = experiment: microbe, parasite or virus in culture; format: cell-based, Acinetobacter baumannii
Outline: as §1

MDRAB 12035 [2] = experiment: microbe, parasite or virus in culture; format: cell-based, Acinetobacter baumannii
Outline: as §1

B. subtilis = experiment: microbe, parasite or virus in culture; format: cell-based, Bacillus subtilis
Outline: as §1

A. baumannii [3] = experiment: MIC of antibiotic during combined treatment with antimicrobial peptide; format: cell-based, Acinetobacter baumannii; conditions: A. baumannii
Outline: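 MIC values for mixed peptide plus antibiotic solutions were measured in MH medium.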

MDRAB 12035 [4] = experiment: as above; format: cell-based, Acinetobacter baumannii
Outline: (§2)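 Antibiotic MIC came from antibiotic dilutions added to bacteria (2×10^6 CFU/ml, MH medium) already combined with peptide serially diluted 2:1 from its own MIC. Swapping the roles of the two agents gave the peptide MIC.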

E. coli = format: cell-based, Escherichia coli; conditions: E. coli
Outline: as §2

MDREC 1229 = format: cell-based, Escherichia coli
Outline: as §2

[5] = combined with peptide at 1 μg/ml
[6] = combined with peptide at 2 μg/ml
[7] = combined with peptide at 4 μg/ml
[8] = combined with peptide at 6 μg/ml
[9] = combined with peptide at 8 μg/ml
[10] = combined with peptide at 16 μg/ml
[11] = combined with peptide at 32 μg/ml
[12] = combined with peptide at 64 μg/ml
[13] = peptide treatment concentration 1 μg/ml
[14] = peptide treatment concentration 2 μg/ml
[15] = peptide treatment concentration 4 μg/ml
[16] = peptide treatment concentration 6 μg/ml
[17] = peptide treatment concentration 8 μg/ml
[18] = peptide treatment concentration 16 μg/ml
[19] = peptide treatment concentration 32 μg/ml
[20] = peptide treatment concentration 64 μg/ml
[21] = with Erythromycin […] (Conc./MIC 1)

CC[C@H](C)[C@H](NC(=O)[C@H](CCCCN)NC(=O)[C@H](Cc1c[nH]c2ccccc12)NC(=O)[C@@H](N)CCCNC(=N)N)C(=O)N[C@@H](Cc1ccccc1)C(=O)N[C@@H](CCCCN)C(=O)N[C@@H](CCCCN)C(=O)N[C@H](C(=O)N1CCC[C@H]1C(=O)N[C@@H](CCCCN)C(=O)N[C@@H](Cc1ccccc1)C(=O)N[C@@H](CC(C)C)C(=O)N[C@@H](Cc1c[nH]cn1)C(=O)N[C@@H](CO)C(=O)N[C@@H](C)C(=O)N[C@@H](CCCCN)C(=O)N[C@@H](CCCCN)C(=O)N[C@@H](Cc1ccccc1)C(N)=O)[C@@H](C)CC [PapMA-1, RWK IFK KIP KFL HSA KKF-NH2] (H-RWKIFKKIPKFLHSAKKF-NH2; N-terminus assumed)
0.25 µg/mL: Erythromycin MIC during combined treatment with peptide (MDRAB 12035 [4]; [18])
64 µg/mL: Minimal inhibitory concentration MIC (A. baumannii [1]) | Peptide MIC, peptide alone (A. baumannii [1]) | Minimal inhibitory concentration MIC (MDRAB 12035 [2]) | Peptide MIC, peptide alone (MDRAB 12035 [2]) | Linezolid MIC during combined treatment with peptide (MDRAB 12035 [4]; [15])
2 µg/mL: Antibiotic MIC, Erythromycin (A. baumannii [3]; [8]) | Antibiotic MIC, Vancomycin (A. baumannii [3]; [11]) | Peptide MIC during treatment with antibiotic (MDREC 1229; erythromycin 32 μg/ml (Conc./MIC 1/8)) | Peptide MIC during treatment with antibiotic (MDREC 1229; linezolid […] (Conc./MIC 1/4)) | Peptide MIC during treatment with antibiotic (MDREC 1229; vancomycin 512 μg/ml (Conc./MIC 1/2))
0 µg/mL: Antibiotic MIC, Erythromycin (A. baumannii [3]; [12]) | Antibiotic MIC, Linezolid (A. baumannii [3]; [12]) | Antibiotic MIC, Vancomycin (A. baumannii [3]; [12]) | Erythromycin MIC during combined treatment with peptide (MDRAB 12035 [4]; [20]) | Linezolid MIC during combined treatment with peptide (MDRAB 12035 [4]; [20]) | Vancomycin MIC during combined treatment with peptide (MDRAB 12035 [4]; [20]) | Peptide MIC (E. coli; [21]) | Peptide MIC (E. coli; with Linezolid […] (Conc./MIC 1)) | Peptide MIC (E. coli; with Vancomycin 1024 μg/ml (Conc./MIC 1)) | Peptide MIC during treatment with antibiotic (MDREC 1229; erythromycin […] (Conc./MIC 1)) | Peptide MIC during treatment with antibiotic (MDREC 1229; linezolid 512 μg/ml (Conc./MIC 1)) | Peptide MIC (MDREC 1229; [21]) | Peptide MIC (MDREC 1229; with Linezolid 512 μg/ml (Conc./MIC 1))
2 µg/mL and 4 µg/mL: Peptide MIC during treatment with antibiotic (MDREC 1229; linezolid 64 μg/ml (Conc./MIC 1/8))
1 µg/mL and 2 µg/mL: Peptide MIC during treatment with antibiotic (MDREC 1229; erythromycin 64 μg/ml (Conc./MIC 1/4))
8 µg/mL: Antibiotic MIC, Erythromycin (A. baumannii [3]; [7]) | Antibiotic MIC, Linezolid (A. baumannii [3]; [9]) | Antibiotic MIC, Vancomycin (A. baumannii [3]; [9]) | Antibiotic MIC, Vancomycin (A. baumannii [3]; [10]) | Linezolid MIC during combined treatment with peptide (MDRAB 12035 [4]; [18]) | Vancomycin MIC during combined treatment with peptide (MDRAB 12035 [4]; [19]) | Peptide MIC during treatment with antibiotic (MDREC 1229; vancomycin […] (Conc./MIC 1/8))
1 µg/mL: Peptide MIC during treatment with antibiotic (MDREC 1229; erythromycin […] (Conc./MIC 1/2)) | Peptide MIC during treatment with antibiotic (MDREC 1229; linezolid […] (Conc./MIC 1/2)) | Peptide MIC during treatment with antibiotic (MDREC 1229; vancomycin 1024 μg/ml (Conc./MIC 1))
128 µg/mL: Antibiotic MIC, Linezolid (A. baumannii [3]; [6]) | Antibiotic MIC, Vancomycin (A. baumannii [3]; [6]) | Linezolid MIC during combined treatment with peptide (MDRAB 12035 [4]; [14]) | Vancomycin MIC during combined treatment with peptide (MDRAB 12035 [4]; [15])
0.0625 µg/mL: Antibiotic MIC, Erythromycin (A. baumannii [3]; [11])
>128 µg/mL: Minimal inhibitory concentration MIC (B. subtilis) | Antibiotic MIC, Linezolid (A. baumannii [3]; [5]) | Antibiotic MIC, Vancomycin (A. baumannii [3]; [5]) | Linezolid MIC during combined treatment with peptide (MDRAB 12035 [4]; [13]) | Vancomycin MIC during combined treatment with peptide (MDRAB 12035 [4]; [13]) | Vancomycin MIC during combined treatment with peptide (MDRAB 12035 [4]; [14])
0.5 µg/mL: Antibiotic MIC, Erythromycin (A. baumannii [3]; [9]) | Erythromycin MIC during combined treatment with peptide (MDRAB 12035 [4]; [17])
0.125 µg/mL: Antibiotic MIC, Erythromycin (A. baumannii [3]; [10]) | Erythromycin MIC during combined treatment with peptide (MDRAB 12035 [4]; [19])
16 µg/mL: Minimal inhibitory concentration MIC (MDRPA 2002) | Antibiotic MIC, Erythromycin (A. baumannii [3]; [6]) | Antibiotic MIC, Vancomycin (A. baumannii [3]; [8]) | Erythromycin MIC during combined treatment with peptide (MDRAB 12035 [4]; [15]) | Linezolid MIC during combined treatment with peptide (MDRAB 12035 [4]; [17]) | Vancomycin MIC during combined treatment with peptide (MDRAB 12035 [4]; [17]) | Vancomycin MIC during combined treatment with peptide (MDRAB 12035 [4]; [18])
4 µg/mL: Antibiotic MIC, Linezolid (A. baumannii [3]; [10]) | Antibiotic MIC, Linezolid (A. baumannii [3]; [11]) | Erythromycin MIC during combined treatment with peptide (MDRAB 12035 [4]; [16]) | Linezolid MIC during combined treatment with peptide (MDRAB 12035 [4]; [19]) | Peptide MIC during treatment with antibiotic (MDREC 1229; vancomycin […] (Conc./MIC 1/4))
32 µg/mL: Minimal inhibitory concentration MIC (MDRPA 2003) | Antibiotic MIC, Erythromycin (A. baumannii [3]; [5]) | Antibiotic MIC, Linezolid (A. baumannii [3]; [7]) | Antibiotic MIC, Vancomycin (A. baumannii [3]; [7]) | Antibiotic MIC, Linezolid (A. baumannii [3]; [8]) | Erythromycin MIC during combined treatment with peptide (MDRAB 12035 [4]; [13]) | Erythromycin MIC during combined treatment with peptide (MDRAB 12035 [4]; [14]) | Linezolid MIC during combined treatment with peptide (MDRAB 12035 [4]; [16]) | Vancomycin MIC during combined treatment with peptide (MDRAB 12035 [4]; [16])
